Legend:
[1] = test system: LNCaP; experiment: Reduction in AR gene expression in AR positive human LNCaP cells assessed as reduction in mRNA level measured after 6 hrs by qRT-PCT analysis relative to control; format: functional, cell-based; conditions: dose 0.1-1000 nM
[2] = test system: LNCaP; experiment: Potency index, ratio of GNE-049 IC50 to test compound IC50 for antiproliferative activity against AR positive human LNCaP cells assessed inhibition of cell growth measured after 4 days by CellTiter-Glo Luminescent cell viability assay; format: functional; conditions: time 4 day
[3] = target: T1, Protein cereblon/CREB-binding protein (Homo sapiens, UniProt Q92793+Q96SW2); experiment: PROTAC activity at CBP/CRBN in human VCaP cells assessed as maximal protein degradation at 1 uM incubated for 4 hrs by Western blot analysis relative to control; format: cell-based
[4] = target: T1, Protein cereblon/CREB-binding protein; experiment: In vivo PROTAC activity at CBP/CRBN in human VCaP cells xenografted in SCID mouse assessed as reduction in CBP protein at 3 mg/kg, po measured after 24 hrs; format: functional, organism-based; design: scale not given: the % may be the effect or the level left
[5] = target: T1, Protein cereblon/CREB-binding protein; experiment: In vivo PROTAC activity at p300/CRBN in human VCaP cells xenografted in CB17 SCID mouse assessed as reduction in CBP protein at 3 mg/kg, po measured after 3 hrs; format: functional, organism-based; design: scale not given: the % may be the effect or the level left
[6] = target: T1, Protein cereblon/CREB-binding protein; experiment: In vivo PROTAC activity at CBP/CRBN in human VCaP cells xenografted in SCID mouse assessed as reduction in CBP protein at 1 mg/kg, po measured after 3 hrs; format: functional, organism-based; design: scale not given: the % may be the effect or the level left
[7] = Drug exposure in CB17 SCID mouse xenografted with human VCaP cells assessed compound concentration in tumor at 3 mg/kg, po measured after 3 hrs by LC-MS/MS analysis; format: ADME, organism-based, Neoplasm; conditions: read-out: Drug uptake
[8] = target: T1, Protein cereblon/CREB-binding protein; experiment: PROTAC activity at CBP/CRBN in human LNCaP cells assessed as protein degradation incubated for 4 hrs by Western blot analysis; format: cell-based
[9] = Reduction in c-Myc gene expression in AR positive human LNCaP cells assessed as reduction in mRNA level at 10 nM measured after 6 hrs by qRT-PCT analysis relative to control; format: functional
[10] = Plasma concentration in CB17 SCID mouse xenografted with human VCaP cells at 1 mg/kg, po measured after 3 hrs by LC-MS/MS analysis; format: ADME, organism-based
[11] = Oral bioavailability in male ICR mouse at 3 mg/kg measured upto 24 hrs by LC-MS/MS analysis; format: ADME, organism-based; conditions: in vivo
[12] = target: T1, Protein cereblon/CREB-binding protein; experiment: PROTAC activity at CBP/CRBN in AR positive human VCaP cells assessed as maximal protein degradation at 12.3 nM incubated for 4 hrs by Western blot analysis relative to control; format: cell-based
[13] = target: T2, Protein cereblon/Histone acetyltransferase p300 (Homo sapiens, UniProt Q09472+Q96SW2); experiment: PROTAC activity at p300/CRBN in human LNCaP cells assessed as maximal protein degradation at 1 uM incubated for 4 hrs by Western blot analysis relative to control; format: cell-based
Target sequence in this assay (Q09472 2-2414 limits assumed): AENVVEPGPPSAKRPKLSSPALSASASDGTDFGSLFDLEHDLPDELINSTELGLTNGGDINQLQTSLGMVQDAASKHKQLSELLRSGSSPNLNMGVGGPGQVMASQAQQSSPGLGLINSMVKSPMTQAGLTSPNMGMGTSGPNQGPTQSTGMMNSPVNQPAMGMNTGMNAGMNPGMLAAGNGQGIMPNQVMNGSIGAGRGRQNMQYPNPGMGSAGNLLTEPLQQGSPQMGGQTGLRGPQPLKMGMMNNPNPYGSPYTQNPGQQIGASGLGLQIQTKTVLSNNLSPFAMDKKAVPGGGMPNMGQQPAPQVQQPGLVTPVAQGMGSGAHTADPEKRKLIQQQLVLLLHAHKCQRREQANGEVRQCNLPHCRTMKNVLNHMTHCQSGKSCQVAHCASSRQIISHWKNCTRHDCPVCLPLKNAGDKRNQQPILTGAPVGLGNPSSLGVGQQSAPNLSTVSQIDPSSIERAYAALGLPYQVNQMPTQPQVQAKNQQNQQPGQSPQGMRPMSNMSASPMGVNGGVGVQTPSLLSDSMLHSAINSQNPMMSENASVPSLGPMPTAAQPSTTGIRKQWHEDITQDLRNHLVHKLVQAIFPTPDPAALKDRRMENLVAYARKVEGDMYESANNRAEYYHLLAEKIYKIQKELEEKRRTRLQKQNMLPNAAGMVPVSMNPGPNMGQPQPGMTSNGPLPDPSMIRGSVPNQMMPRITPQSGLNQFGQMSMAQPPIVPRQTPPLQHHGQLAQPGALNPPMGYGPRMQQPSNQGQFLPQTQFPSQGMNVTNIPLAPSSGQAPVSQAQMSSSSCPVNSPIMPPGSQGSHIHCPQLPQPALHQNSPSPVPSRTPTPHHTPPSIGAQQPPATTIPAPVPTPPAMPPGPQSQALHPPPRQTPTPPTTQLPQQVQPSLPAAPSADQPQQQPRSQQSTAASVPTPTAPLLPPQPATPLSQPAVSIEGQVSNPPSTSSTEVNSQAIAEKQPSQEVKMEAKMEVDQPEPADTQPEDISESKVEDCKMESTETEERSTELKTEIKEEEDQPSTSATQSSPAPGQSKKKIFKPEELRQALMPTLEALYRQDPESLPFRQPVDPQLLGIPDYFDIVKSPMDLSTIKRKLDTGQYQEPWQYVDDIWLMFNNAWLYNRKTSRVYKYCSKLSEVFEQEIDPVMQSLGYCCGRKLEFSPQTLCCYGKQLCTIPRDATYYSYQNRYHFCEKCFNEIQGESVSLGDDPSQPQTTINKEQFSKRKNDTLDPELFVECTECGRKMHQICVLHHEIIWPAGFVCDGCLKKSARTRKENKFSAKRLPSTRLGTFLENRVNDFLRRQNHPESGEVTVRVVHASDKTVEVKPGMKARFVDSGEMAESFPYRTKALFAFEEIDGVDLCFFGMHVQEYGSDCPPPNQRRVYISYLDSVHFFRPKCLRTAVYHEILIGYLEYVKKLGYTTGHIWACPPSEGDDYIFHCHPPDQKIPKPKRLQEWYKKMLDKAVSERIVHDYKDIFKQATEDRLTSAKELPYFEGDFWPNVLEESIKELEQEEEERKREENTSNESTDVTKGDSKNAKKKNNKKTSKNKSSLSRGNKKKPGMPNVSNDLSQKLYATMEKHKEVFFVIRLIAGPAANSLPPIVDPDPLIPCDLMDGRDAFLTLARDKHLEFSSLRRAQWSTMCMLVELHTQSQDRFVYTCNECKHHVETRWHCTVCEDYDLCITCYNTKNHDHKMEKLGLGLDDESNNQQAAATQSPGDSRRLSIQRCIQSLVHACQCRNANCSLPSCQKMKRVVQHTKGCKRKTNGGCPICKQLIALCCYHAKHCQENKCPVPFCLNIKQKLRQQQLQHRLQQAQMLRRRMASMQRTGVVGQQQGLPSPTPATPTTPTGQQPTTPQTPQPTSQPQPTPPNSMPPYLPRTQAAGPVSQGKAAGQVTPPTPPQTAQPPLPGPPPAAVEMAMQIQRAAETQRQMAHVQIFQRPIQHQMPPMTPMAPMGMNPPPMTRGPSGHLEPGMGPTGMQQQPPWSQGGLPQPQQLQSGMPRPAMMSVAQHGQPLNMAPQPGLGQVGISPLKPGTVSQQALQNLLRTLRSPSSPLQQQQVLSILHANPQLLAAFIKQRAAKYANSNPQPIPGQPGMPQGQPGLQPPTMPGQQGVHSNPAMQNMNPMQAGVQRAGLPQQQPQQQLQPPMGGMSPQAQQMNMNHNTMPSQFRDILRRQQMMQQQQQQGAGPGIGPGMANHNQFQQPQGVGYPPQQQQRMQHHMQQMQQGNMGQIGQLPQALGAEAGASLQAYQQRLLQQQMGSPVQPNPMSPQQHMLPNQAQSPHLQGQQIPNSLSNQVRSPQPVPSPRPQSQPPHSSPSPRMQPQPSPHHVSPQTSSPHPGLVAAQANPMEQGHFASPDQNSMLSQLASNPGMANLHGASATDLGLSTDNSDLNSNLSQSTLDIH
Target sequence in this assay (Q96SW2 whole entry partner): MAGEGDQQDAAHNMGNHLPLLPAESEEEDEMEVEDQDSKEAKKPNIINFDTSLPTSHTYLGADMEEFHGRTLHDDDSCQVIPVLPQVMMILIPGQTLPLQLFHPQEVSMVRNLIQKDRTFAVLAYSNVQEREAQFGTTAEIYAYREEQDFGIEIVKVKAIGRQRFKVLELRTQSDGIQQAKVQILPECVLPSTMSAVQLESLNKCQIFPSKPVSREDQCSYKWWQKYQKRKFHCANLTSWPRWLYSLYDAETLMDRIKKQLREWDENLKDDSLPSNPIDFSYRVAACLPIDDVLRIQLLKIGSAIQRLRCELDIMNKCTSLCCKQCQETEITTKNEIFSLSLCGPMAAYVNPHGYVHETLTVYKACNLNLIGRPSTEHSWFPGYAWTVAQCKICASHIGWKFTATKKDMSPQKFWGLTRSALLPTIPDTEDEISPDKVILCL

[14] = target: T1, Protein cereblon/CREB-binding protein; experiment: PROTAC activity at CBP/CRBN in AR positive human VCaP cells assessed as maximal protein degradation at 4.1 nM incubated for 4 hrs by Western blot analysis relative to control; format: cell-based
[15] = target: T2, Protein cereblon/Histone acetyltransferase p300; experiment: PROTAC activity at p300/CRBN in AR positive human VCaP cells assessed as maximal protein degradation at 1.4 nM incubated for 4 hrs by Western blot analysis relative to control; format: cell-based
Target sequence in this assay (Q09472 2-2414 limits assumed): as the sequence (Q09472 2-2414 limits assumed) above
Target sequence in this assay (Q96SW2 whole entry partner): as the sequence (Q96SW2 whole entry partner) above

[16] = target: T1, Protein cereblon/CREB-binding protein; experiment: PROTAC activity at CBP/CRBN in human VCaP cells assessed as protein degradation incubated for 4 hrs by Western blot analysis; format: cell-based
[17] = Drug exposure in CB17 SCID mouse xenografted with human VCaP cells assessed compound concentration in tumor at 3 mg/kg, po measured after 24 hrs by LC-MS/MS analysis; format: ADME, organism-based, Neoplasm; conditions: in vivo, BLD = below limit of detection
[18] = test system: VCaP; experiment: Reduction in KLK3 gene expression in AR positive human VCaP cells assessed as reduction in mRNA level measured after 6 hrs by qRT-PCT analysis relative to control; format: functional, cell-based; conditions: dose 0.1-1000 nM
[19] = target: T2, Protein cereblon/Histone acetyltransferase p300; experiment: PROTAC activity at p300/CRBN in AR positive human VCaP cells assessed as maximal protein degradation at 1000 nM incubated for 4 hrs by Western blot analysis relative to control; format: cell-based
Target sequence in this assay (Q09472 2-2414 limits assumed): as the sequence (Q09472 2-2414 limits assumed) above
Target sequence in this assay (Q96SW2 whole entry partner): as the sequence (Q96SW2 whole entry partner) above

[20] = target: T2, Protein cereblon/Histone acetyltransferase p300; experiment: PROTAC activity at p300/CRBN in human VCaP cells assessed as protein degradation incubated for 4 hrs by Western blot analysis; format: cell-based
[21] = test system: CWR22R; experiment: Potency index, ratio of ARV-110 IC50 to test compound IC50 for antiproliferative activity against AR positive human 22Rv1 cells assessed inhibition of cell growth measured after 4 days by CellTiter-Glo Luminescent cell viability assay; format: functional; conditions: time 4 day
[22] = Drug exposure in CB17 SCID mouse xenografted with human VCaP cells assessed compound concentration in tumor at 1 mg/kg, po measured after 24 hrs by LC-MS/MS analysis; format: ADME, organism-based, Neoplasm; conditions: in vivo, BLD = below limit of detection
[23] = Volume of distribution at steady state in male ICR mouse at 1 mg/kg, iv measured upto 24 hrs by LC-MS/MS analysis; format: ADME, organism-based; conditions: in vivo, read-out: Vdss
[24] = target: T2, Protein cereblon/Histone acetyltransferase p300; experiment: PROTAC activity at p300/CRBN in human 22Rv1 cells assessed as protein degradation incubated for 4 hrs by Western blot analysis; format: cell-based
[25] = Clearance in male ICR mouse at 1 mg/kg, iv measured upto 24 hrs by LC-MS/MS analysis; format: ADME, organism-based; conditions: in vivo
[26] = target: T2, Protein cereblon/Histone acetyltransferase p300; experiment: PROTAC activity at p300/CRBN in human VCaP cells assessed as maximal protein degradation at 1 uM incubated for 4 hrs by Western blot analysis relative to control; format: cell-based
Target sequence in this assay (Q09472 2-2414 limits assumed): as the sequence (Q09472 2-2414 limits assumed) above
Target sequence in this assay (Q96SW2 whole entry partner): as the sequence (Q96SW2 whole entry partner) above

[27] = Reduction in KLK3 gene expression in AR positive human VCaP cells assessed as reduction in mRNA level at 1 nM measured after 6 hrs by qRT-PCT analysis relative to control; format: functional
[28] = test system: LNCaP; experiment: Antiproliferative activity against AR positive human LNCaP cells assessed inhibition of cell growth measured after 4 days by CellTiter-Glo Luminescent cell viability assay; format: functional, cell-based; conditions: 96 h
[29] = target: T1, Protein cereblon/CREB-binding protein; experiment: PROTAC activity at CBP/CRBN in human 22Rv1 cells assessed as reduction in protein level at 100 nM incubated for 4 hrs by multiplexed quantitative proteomics analysis relative to control; format: cell-based; design: scale not given: the % may be the effect or the level left
[30] = Drug exposure in CB17 SCID mouse xenografted with human VCaP cells assessed compound concentration in tumor at 1 mg/kg, po measured after 3 hrs by LC-MS/MS analysis; format: ADME, organism-based, Neoplasm; conditions: read-out: Drug uptake
[31] = target: T2, Protein cereblon/Histone acetyltransferase p300; experiment: PROTAC activity at p300/CRBN in AR positive human VCaP cells assessed as maximal protein degradation at 4.1 nM incubated for 4 hrs by Western blot analysis relative to control; format: cell-based
Target sequence in this assay (Q09472 2-2414 limits assumed): as the sequence (Q09472 2-2414 limits assumed) above
Target sequence in this assay (Q96SW2 whole entry partner): as the sequence (Q96SW2 whole entry partner) above

[32] = target: T2, Protein cereblon/Histone acetyltransferase p300; experiment: PROTAC activity at p300/CRBN in AR positive human VCaP cells assessed as maximal protein degradation at 0.15 nM incubated for 4 hrs by Western blot analysis relative to control; format: cell-based
Target sequence in this assay (Q09472 2-2414 limits assumed): as the sequence (Q09472 2-2414 limits assumed) above
Target sequence in this assay (Q96SW2 whole entry partner): as the sequence (Q96SW2 whole entry partner) above

[33] = Reduction in KLK3 gene expression in AR positive human 22Rv1 cells assessed as reduction in mRNA level at 10 nM measured after 6 hrs by qRT-PCT analysis relative to control; format: functional, CWR22R
[34] = Reduction in AR gene expression in AR positive human 22Rv1 cells assessed as reduction in mRNA level at 10 nM measured after 6 hrs by qRT-PCT analysis relative to control; format: functional, CWR22R

In the case of `CC(=O)N1CCc2c(c(N3CCCc4cc(-c5cnn(C)c5)c(C(F)F)cc43)nn2[C@H]2CC[C@H](CN3CCN(c4ccc5c(c4)C(=O)N(C4CCC(=O)NC4=O)C5=O)CC3)CC2)C1` (some centres undefined), the inhibition [1] is reported as “Dose-Dependent Effect”, the “Ratio IC50” value [2] is reported as 100 and the Emax [3] is reported as over 95%. The Activity [4] was over 95%, the Activity [5] was over 95% and the Activity [6] was over 95%. The concentration at 3 h [7] was 141 ng/mL, the DC50 [8] was 0.3 nM and the inhibition at 0.01 µM [9] was over 95%. It also gave a concentration at 3 h [10] of 95 ng/mL, a bioavailability [11] of 50% and an Activity [12] of 98%. For the same compound, the Emax [13] was 95%, the Activity [14] was 97% and the Activity [15] was 97%. For the same compound, the DC50 [16] was 0.3 nM, the Drug uptake [17] was “Bld” and the inhibition [18] was “Dose-Dependent Effect”. The Activity [19] was 75%, the DC50 [20] was 0.2 nM and the “Ratio IC50” value [21] was over 50. The Drug uptake [22] was “Bld”, the Vd [23] was 0.4 L/kg and the DC50 [24] was 0.4 nM. The clearance [25] was 1.7 mL/min/kg, the Emax [26] was over 95% and the inhibition at 0.001 µM [27] was 57%. It also gave an IC50 [28] of 1.6 nM, an Activity [29] of 50% and a concentration at 3 h [30] of 30 ng/mL. It also gave an Activity [31] of 100%, an Activity [32] of 50% and an inhibition at 0.01 µM [33] of 75%. It also gave an inhibition at 0.01 µM [34] of 43%.
